In patent US4496580A, “Oxothienobenzoxepins” (Hoechst-Roussel Pharmaceuticals Inc., priority 1981, dated 1985):

How the values were obtained:
Assay type in all cases: in vivo
[1] = test system: carrageenan-induced rat paw edema; assay: carrageenan-induced rat paw edema antiinflammatory assay (CPE); settings: for ED50: CPE, rat, antiinflammatory
Text: (The carrageenan-induced rat paw edema test is hereinafter referred to as CPE).

[2] = test system: 2-phenyl-1,4-benzoquinone-induced writhing; assay: 2-phenyl-1,4-benzoquinone-induced writhing test in mice (PQW); settings: for ED50: Mus musculus, PQW, mice, analgesic
Text: (The phenylquinone-induced writhing test is hereinafter referred to as PQW).

[3] = ulcerogenic activity test (GI); settings: for TD50: in vivo
Text: (The ulcerogenic ativity test is hereafter referred to as GI).

Row | Compound | ED50 [1] | ED50 [2] | TD50 [3] | activity in the CPE test ([1]; result in words) | activity in the PQW test ([2]; result in words) | incidence of ulcers / ulcerogenic activity ([3]; result in words, test animals, very high dosage levels)
1 | O=C(O)Cc1ccc2c(c1)C(=O)c1sccc1CO2 [Compound 1, reference compound] | 3.4 mg/kg | 4.5 mg/kg | 33.7 mg/kg | – | – | –
2 | CC(C)OC(=O)Cc1ccc2c(c1)C(=O)c1sccc1CO2 [Compound 2, reference compound] | 1.6 mg/kg | 13.7 mg/kg | 21.6 mg/kg | – | – | –
3 | O=C1c2cc(CCCCO)ccc2OCc2ccsc21 [Compound 3, 4-(4,10-Dihydro-10-oxothieno[3,2-c][1]benzoxepin-8-yl)butanol] | 8.6 mg/kg | 7.4 mg/kg | > 400 mg/kg | exhibit activity | exhibit activity | very low incidence of ulcers
